From ChEMBL document CHEMBL4627384, “l-Thyroxin and the Nonclassical Thyroid Hormone TETRAC Are Potent Activators of PPARγ” (J Med Chem, 2020)
Activity calls are given as the source filed them. The calls are words filed in the database; no cut-off is given here.

Tests used:
[1] = target: T1, Peroxisome proliferator-activated receptor gamma (Homo sapiens, UniProt P37231); test: Binding affinity to recombinant PPARgamma LBD (unknown origin) by isothermal titration calorimetry
T1 sequence (P37231 whole entry): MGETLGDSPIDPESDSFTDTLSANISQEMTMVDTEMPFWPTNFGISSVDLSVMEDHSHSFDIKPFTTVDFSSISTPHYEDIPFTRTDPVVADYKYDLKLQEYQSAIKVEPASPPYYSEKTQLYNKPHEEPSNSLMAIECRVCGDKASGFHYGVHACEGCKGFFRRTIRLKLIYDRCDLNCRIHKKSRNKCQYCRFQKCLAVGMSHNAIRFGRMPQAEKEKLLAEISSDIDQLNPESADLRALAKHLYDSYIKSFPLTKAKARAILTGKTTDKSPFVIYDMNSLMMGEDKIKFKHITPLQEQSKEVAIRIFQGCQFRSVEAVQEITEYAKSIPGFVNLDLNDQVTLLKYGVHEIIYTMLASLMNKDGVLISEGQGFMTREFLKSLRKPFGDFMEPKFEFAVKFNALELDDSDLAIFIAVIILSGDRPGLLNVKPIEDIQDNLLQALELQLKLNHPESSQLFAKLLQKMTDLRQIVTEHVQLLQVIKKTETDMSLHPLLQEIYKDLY

[2] = target: T2, Retinoic acid receptor RXR-beta (Homo sapiens) (UniProt P28702); test: Agonist activity at recombinant human pFA-CMV fused RXRbeta LBD expressed in HEK293T cells transfected with pFR-luciferase plasmid and pRL-SV40 plasmid at 10 uM incubated for 14 to 16 hrs by dual glo luciferase reporter gene assay; assay type: cell-based; conditions: HEK-293T
T2 sequence (whole entry): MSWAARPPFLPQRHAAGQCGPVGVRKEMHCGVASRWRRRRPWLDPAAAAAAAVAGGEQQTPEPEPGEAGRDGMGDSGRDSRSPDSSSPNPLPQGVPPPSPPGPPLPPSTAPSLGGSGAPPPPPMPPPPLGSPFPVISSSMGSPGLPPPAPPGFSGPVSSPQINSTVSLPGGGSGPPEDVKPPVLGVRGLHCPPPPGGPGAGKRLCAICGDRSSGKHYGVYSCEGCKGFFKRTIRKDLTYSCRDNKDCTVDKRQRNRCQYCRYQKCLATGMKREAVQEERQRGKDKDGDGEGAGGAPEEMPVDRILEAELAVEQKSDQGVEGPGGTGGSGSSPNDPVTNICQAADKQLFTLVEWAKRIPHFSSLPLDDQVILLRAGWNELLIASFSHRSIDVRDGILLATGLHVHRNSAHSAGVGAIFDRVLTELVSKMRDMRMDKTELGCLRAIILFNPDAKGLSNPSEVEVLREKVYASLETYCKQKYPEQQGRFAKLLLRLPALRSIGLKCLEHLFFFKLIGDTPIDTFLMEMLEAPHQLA

[3] = target: T3, Retinoic acid receptor RXR-alpha (Homo sapiens) (UniProt P19793); test: Agonist activity at recombinant human pFA-CMV fused RXRalpha LBD expressed in HEK293T cells transfected with pFR-luciferase plasmid and pRL-SV40 plasmid at 10 uM incubated for 14 to 16 hrs by dual glo luciferase reporter gene assay; assay type: cell-based; conditions: HEK-293T
T3 sequence (whole entry): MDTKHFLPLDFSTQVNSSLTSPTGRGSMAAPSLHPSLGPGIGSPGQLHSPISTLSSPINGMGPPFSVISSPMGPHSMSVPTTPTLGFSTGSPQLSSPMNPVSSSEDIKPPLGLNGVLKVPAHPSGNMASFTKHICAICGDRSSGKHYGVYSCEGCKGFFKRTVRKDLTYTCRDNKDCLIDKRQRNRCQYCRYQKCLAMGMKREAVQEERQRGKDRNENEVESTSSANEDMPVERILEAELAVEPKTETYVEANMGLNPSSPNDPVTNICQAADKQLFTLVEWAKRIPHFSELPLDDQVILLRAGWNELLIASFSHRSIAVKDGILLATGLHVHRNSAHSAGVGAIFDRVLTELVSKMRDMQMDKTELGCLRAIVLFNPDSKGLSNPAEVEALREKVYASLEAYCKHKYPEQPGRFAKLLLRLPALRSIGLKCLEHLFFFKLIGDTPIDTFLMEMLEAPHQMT

[4] = target: T1, Peroxisome proliferator-activated receptor gamma; test: Agonist activity at recombinant human pFA-CMV fused PPARgamma expressed in HEK293T cells transfected with pFR-luciferase plasmid and pRL-SV40 plasmid incubated for 14 to 16 hrs by dual glo luciferase reporter gene assay; assay type: cell-based, HEK-293T
[5] = target: T4, Retinoic acid receptor RXR-gamma (Homo sapiens) (UniProt P48443); test: Agonist activity at recombinant human pFA-CMV fused RXRgamma LBD expressed in HEK293T cells transfected with pFR-luciferase plasmid and pRL-SV40 plasmid at 10 uM incubated for 14 to 16 hrs by dual glo luciferase reporter gene assay; assay type: cell-based; conditions: HEK-293T
T4 sequence (whole entry): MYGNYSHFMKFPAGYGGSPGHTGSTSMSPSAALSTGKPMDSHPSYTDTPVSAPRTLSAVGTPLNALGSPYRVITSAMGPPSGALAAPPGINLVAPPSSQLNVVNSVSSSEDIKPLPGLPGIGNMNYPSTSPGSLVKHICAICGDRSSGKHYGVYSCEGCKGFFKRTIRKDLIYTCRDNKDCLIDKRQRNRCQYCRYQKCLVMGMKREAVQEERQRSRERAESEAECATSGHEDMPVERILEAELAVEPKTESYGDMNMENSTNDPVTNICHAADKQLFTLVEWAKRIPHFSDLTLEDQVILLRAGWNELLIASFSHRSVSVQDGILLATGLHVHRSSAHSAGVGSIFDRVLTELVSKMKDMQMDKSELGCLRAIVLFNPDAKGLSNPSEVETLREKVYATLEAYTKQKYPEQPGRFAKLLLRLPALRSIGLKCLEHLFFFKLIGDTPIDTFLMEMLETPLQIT

[6] = target: T5, Peroxisome proliferator-activated receptor gamma (Homo sapiens) (UniProt P37231); test: Agonist activity at PPARgamma in human HepG2 cells with THRB knockdown assessed as induction of CD36 mRNA expression incubated for 8 hrs by qPCR analysis; assay type: cell-based
T5 sequence (whole entry): T1 sequence (P37231 whole entry)

[7] = target: T5, Peroxisome proliferator-activated receptor gamma (Homo sapiens); test: Agonist activity at PPARgamma in human HepG2 cells with THRA knockdown assessed as induction of CD36 mRNA expression incubated for 8 hrs by qPCR analysis; assay type: cell-based
[8] = target: T6, Retinoic acid receptor RXR-alpha (Homo sapiens, UniProt P19793); test: Binding affinity to RXRalpha LBD (unknown origin) by isothermal titration calorimetry
T6 sequence (P19793 whole entry): T3 sequence (whole entry)

[9] = target: T6, Retinoic acid receptor RXR-alpha; test: Agonist activity at recombinant human pFA-CMV fused RXRalpha LBD expressed in HEK293T cells transfected with pFR-luciferase plasmid and pRL-SV40 plasmid incubated for 14 to 16 hrs by dual glo luciferase reporter gene assay; assay type: cell-based, HEK-293T; conditions: read-out: EC50
[10] = target: T3, Retinoic acid receptor RXR-alpha (Homo sapiens); test: Agonist activity at recombinant human pFA-CMV fused RXRalpha LBD expressed in HEK293T cells transfected with pFR-luciferase plasmid and pRL-SV40 plasmid incubated for 14 to 16 hrs by dual glo luciferase reporter gene assay relative to control; assay type: cell-based; conditions: HEK-293T
[11] = target: T5, Peroxisome proliferator-activated receptor gamma (Homo sapiens); test: Agonist activity at PPARgamma in human HepG2 cells with THRA knockdown assessed as induction of CD36 expression at 30 uM incubated for 8 hrs in by Western blot analysis; assay type: cell-based

N[C@@H](Cc1cc(I)c(Oc2cc(I)c(O)c(I)c2)c(I)c1)C(=O)O [LEVOTHYROXINE]
Kd [1]: 0.4 µM
Activity [2]: Active
Activity [3]: Active
EC50 [4]: 12 µM
Activity [5]: Active
Activity [6]: Dose-dependent effect
Activity [7]: Dose-dependent effect
Kd [8]: 0.93 µM
EC50 [9]: 15.4 µM
fold change (FC) [10]: 7.4
Activity [11]: Active

O=C(O)Cc1cc(I)c(Oc2cc(I)c(O)c(I)c2)c(I)c1 [TETRAC]
Kd [1]: 0.11 µM
Activity [2]: Active
Activity [3]: Active
EC50 [4]: 0.1 µM
Activity [5]: Active
Activity [6]: Dose-dependent effect
Activity [7]: Dose-dependent effect
Kd [8]: 1.5 µM
EC50 [9]: 1.32 µM
fold change (FC) [10]: 9.1
